For test [1], the system named is Beet Armyworm (Spodoptera exigua). The test is described as follows: Bioassay on Beet Armyworm (BAW), 128-well diet tray assay. It is filed as in vivo. The settings on record: Spodoptera exigua, 168 h; 50 μg/cm^2 on artificial diet, second instar larvae, five to seven days; read-out: BAW % Control (or Mortality) rating.
The subject of test [2] is Cabbage Looper (Trichoplusia ni). The test is described as follows: Bioassay on Cabbage Looper (CL), 128-well diet tray assay. Type of test: in vivo. The settings on record: 168 h, 50 μg/cm^2 on artificial diet, second instar larvae, five to seven days, read-out: CL % Control (or Mortality) rating. In outline:
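Each of eight wells receives artificial diet treated at 50 μg/cm^2 with the test molecule, then one to five second-instar larvae. Incubation runs five to seven days at 25° C with a 14:10 light-dark cycle under vented covers. Mortality is scored per well as a percentage and averaged.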

For `O=C(NNc1cnccn1)c1ccc(/C(F)=C/C(c2cc(Cl)c(Cl)c(Cl)c2)C(F)(F)F)cc1C(F)(F)F` (stereo not drawn) [F92, (Z)—N′-(Pyrazin-2-yl)-4-(1,4,4,4-tetrafluoro-3-(3,4,5-trichlorophenyl)but-1-en-1-yl)-2-(trifluoromethyl)benzohydrazide], the mortality at 50 µg/cm2 in test [1] and in test [2] was 50 to 100% each time.

For `O=C(NNc1ccc(Cl)cn1)c1ccc(/C(F)=C/C(c2cc(Cl)c(Cl)c(Cl)c2)C(F)(F)F)cc1C(F)(F)F` (stereo not drawn) [F93, (Z)—N′-(5-Chloropyridin-2-yl)-4-(1,4,4,4-tetrafluoro-3-(3,4,5-trichlorophenyl)but-1-en-1-yl)-2-(trifluoromethyl)benzohydrazide], the mortality at 50 µg/cm2 in test [1] and in test [2] was 50 to 100% each time.

In the case of `O=C(NNc1ncccn1)c1ccc(/C(F)=C/C(c2cc(Cl)c(Cl)c(Br)c2)C(F)(F)F)cc1C(F)(F)F` (stereo not drawn) [F96, (Z)-4-(3-(3-Bromo-4,5-dichlorophenyl)-1,4,4,4-tetrafluorobut-1-en-1-yl)-N′-(pyrimidin-2-yl)-2-(trifluoromethyl)benzohydrazide], the mortality at 50 µg/cm2 in test [1] and in test [2] was 50 to 100% each time.

`NN(CC1CC1)C(=O)c1ccc(/C(F)=C/C(c2cc(Cl)c(Cl)c(Cl)c2)C(F)(F)F)cc1C(F)(F)F` (stereo not drawn) [F98, (Z)—N-(Cyclopropylmethyl)-4-(1,4,4,4-tetrafluoro-3-(3,4,5-trichlorophenyl)but-1-en-1-yl)-2-(trifluoromethyl)benzohydrazide]: the mortality at 50 µg/cm2 in test [1] and in test [2] was 50 to 100% throughout.

For `O=C(NNc1ncc(C(F)(F)F)cn1)c1ccc(/C(F)=C/C(c2cc(Cl)c(Cl)c(Cl)c2)C(F)(F)F)cc1C(F)(F)F` (stereo not drawn) [F101, (Z)-4-(1,4,4,4-Tetrafluoro-3-(3,4,5-trichlorophenyl)but-1-en-1-yl)-2-(trifluoromethyl)-N′-(5-(trifluoromethyl)pyrimidin-2-yl)benzohydrazide], the mortality at 50 µg/cm2 in test [1] and in test [2] was 50 to 100% throughout.

`O=C(NNCCCC(F)(F)F)c1ccc(/C(F)=C/C(c2cc(Cl)c(Cl)c(Cl)c2)C(F)(F)F)cc1C(F)(F)F` (stereo not drawn) [F103, (Z)-4-(1,4,4,4-tetrafluoro-3-(3,4,5-trichlorophenyl)but-1-en-1-yl)-N′-(4,4,4-trifluorobutyl)-2-(trifluoromethyl)benzohydrazide]: the mortality at 50 µg/cm2 in test [1] and in test [2] was 50 to 100% in each case.

As for `O=C(NNc1cncc(Cl)n1)c1ccc(/C(F)=C/C(c2cc(Cl)c(Cl)c(Cl)c2)C(F)(F)F)cc1C(F)(F)F` (stereo not drawn) [F104, (Z)—N′-(6-Chloropyrazin-2-yl)-4-(1,4,4,4-tetrafluoro-3-(3,4,5-trichlorophenyl)but-1-en-1-yl)-2-(trifluoromethyl)benzohydrazide], the mortality at 50 µg/cm2 in test [1] and in test [2] was 50 to 100% each time.

As to `Cc1cc(O)nc(NNC(=O)c2ccc(/C(F)=C/C(c3cc(Cl)c(Cl)c(Cl)c3)C(F)(F)F)cc2C(F)(F)F)n1` (stereo not drawn) [F105, (Z)—N′-(4-Hydroxy-6-methylpyrimidin-2-yl)-4-(1,4,4,4-tetrafluoro-3-(3,4,5-trichlorophenyl)but-1-en-1-yl)-2-(trifluoromethyl)benzohydrazide], the mortality at 50 µg/cm2 in test [1] and in test [2] was 50 to 100% in each case.

For the molecule `O=C(NNc1ncccn1)c1ccc(/C(F)=C/C(c2cc(Cl)cc(OC(F)(F)F)c2)C(F)(F)F)cc1C(F)(F)F` (stereo not drawn) [F106, (Z)-4-(3-(3-Chloro-5-(trifluoromethoxy)phenyl)-1,4,4,4-tetrafluorobut-1-en-1-yl)-N′-(pyrimidin-2-yl)-2-(trifluoromethyl)benzohydrazide], the mortality at 50 µg/cm2 in test [1] and in test [2] was 50 to 100% each time.

For the molecule `CN(NC(=O)c1ccc(/C(F)=C/C(c2ccc(OC(F)(F)F)c(Cl)c2)C(F)(F)F)cc1C(F)(F)F)c1ccccn1` (stereo not drawn) [F107, (Z)-4-(3-(3-Chloro-4-(trifluoromethoxy)phenyl)-1,4,4,4-tetrafluorobut-1-en-1-yl)-N′-methyl-N′-(pyridin-2-yl)-2-(trifluoromethyl)benzohydrazide], the mortality at 50 µg/cm2 in test [1] and in test [2] was 50 to 100% in each case.

Regarding `O=C(NNC1CCCC1)c1ccc(/C(F)=C/C(c2cc(Cl)c(Cl)c(Cl)c2)C(F)(F)F)cc1C(F)(F)F` (stereo not drawn) [F110, (Z)—N′-Cyclopentyl-4-(1,4,4,4-tetrafluoro-3-(3,4,5-trichlorophenyl)but-1-en-1-yl)-2-(trifluoromethyl)benzohydrazide], the mortality at 50 µg/cm2 in test [1] and in test [2] was 50 to 100% each time.

Turning to `NN(C(=O)c1ccc(/C(F)=C/C(c2cc(Cl)c(Cl)c(Cl)c2)C(F)(F)F)cc1C(F)(F)F)C1CC1` (stereo not drawn) [F112, (Z)—N-Cyclopropyl-4-(1,4,4,4-tetrafluoro-3-(3,4,5-trichlorophenyl)but-1-en-1-yl)-2-(trifluoromethyl)benzohydrazide], the mortality at 50 µg/cm2 in test [1] and in test [2] was 50 to 100% throughout.

With `CN(NC(=O)c1ccc(/C(F)=C/C(c2ccc(F)c(C(F)(F)F)c2)C(F)(F)F)cc1C(F)(F)F)c1ncccn1` (stereo not drawn) [F113, (Z)—N′-Methyl-N′-(pyrimidin-2-yl)-4-(1,4,4,4-tetrafluoro-3-(4-fluoro-3-(trifluoromethyl)phenyl)but-1-en-1-yl)-2-(trifluoromethyl)benzohydrazide], the mortality at 50 µg/cm2 in test [1] and in test [2] was 50 to 100% throughout.

`O=C(NNc1ncc(F)cn1)c1ccc(/C(F)=C/C(c2cc(Cl)c(Cl)c(Cl)c2)C(F)(F)F)cc1C(F)(F)F` (stereo not drawn) [F114, (Z)—N′-(5-Fluoropyrimidin-2-yl)-4-(1,4,4,4-tetrafluoro-3-(3,4,5-trichlorophenyl)but-1-en-1-yl)-2-(trifluoromethyl)benzohydrazide]: the mortality at 50 µg/cm2 in test [1] and in test [2] was 50 to 100% in each case.

Turning to `O=C(NNC1=NCCN1)c1ccc(/C(F)=C/C(c2cc(Cl)c(Cl)c(Cl)c2)C(F)(F)F)cc1C(F)(F)F` (stereo not drawn) [F116, (Z)—N′-(4,5-Dihydro-1H-imidazol-2-yl)-4-(1,4,4,4-tetrafluoro-3-(3,4,5-trichlorophenyl)but-1-en-1-yl)-2-(trifluoromethyl)benzohydrazide], the mortality at 50 µg/cm2 in test [1] and in test [2] was 50 to 100% each time.

Turning to `O=C(NNc1ccccc1[N+](=O)[O-])c1ccc(/C(F)=C/C(c2cc(Cl)c(Cl)c(Cl)c2)C(F)(F)F)cc1C(F)(F)F` (stereo not drawn) [F118, (Z)—N′-(2-nitrophenyl)-4-(1,4,4,4-tetrafluoro-3-(3,4,5-trichlorophenyl)but-1-en-1-yl)-2-(trifluoromethyl)benzohydrazide], the mortality at 50 µg/cm2 in test [1] and in test [2] was 50 to 100% in each case.

With `O=C(NNc1cccnc1)c1ccc(/C(F)=C/C(c2cc(Cl)c(Cl)c(Cl)c2)C(F)(F)F)cc1C(F)(F)F` (stereo not drawn) [F121, (Z)—N′-(Pyridin-3-yl)-4-(1,4,4,4-tetrafluoro-3-(3,4,5-trichlorophenyl)but-1-en-1-yl)-2-(trifluoromethyl)benzohydrazide], the mortality at 50 µg/cm2 in test [1] and in test [2] was 50 to 100% throughout.

Consider `CN(NC(=O)c1ccc(/C(F)=C/C(c2cc(Br)c(F)c(Br)c2)C(F)(F)F)cc1C(F)(F)F)c1ccccc1` (stereo not drawn) [F123, (Z)-4-(3-(3,5-Dibromo-4-fluorophenyl)-1,4,4,4-tetrafluorobut-1-en-1-yl)-N′-methyl-N′-phenyl-2-(trifluoromethyl)benzohydrazide], for which the mortality at 50 µg/cm2 in test [1] and in test [2] was 50 to 100% throughout.

Take `CN(NC(=O)c1ccc(/C(F)=C/C(c2ccc(Br)c(Cl)c2)C(F)(F)F)cc1C(F)(F)F)c1ncccn1` (stereo not drawn) [F125, (Z)-4-(3-(4-Bromo-3-chlorophenyl)-1,4,4,4-tetrafluorobut-1-en-1-yl)-N′-methyl-N′-(pyrimidin-2-yl)-2-(trifluoromethyl)benzohydrazide]: the mortality at 50 µg/cm2 in test [1] and in test [2] was 50 to 100% each time.

On to `O=C(NNc1c(Cl)cccc1Cl)c1ccc(/C(F)=C/C(c2cc(Cl)c(Cl)c(Cl)c2)C(F)(F)F)cc1C(F)(F)F` (stereo not drawn) [F129, (Z)—N′-(2,6-dichlorophenyl)-4-(1,4,4,4-tetrafluoro-3-(3,4,5-trichlorophenyl)but-1-en-1-yl)-2-(trifluoromethyl)benzohydrazide], for which the mortality at 50 µg/cm2 in test [1] and in test [2] was 50 to 100% throughout.

As to `O=C(NNc1c(Cl)c(Cl)nc(Cl)c1Cl)c1ccc(/C(F)=C/C(c2cc(Cl)c(Cl)c(Cl)c2)C(F)(F)F)cc1C(F)(F)F` (stereo not drawn) [F131, (Z)—N′-(Perchloropyridin-4-yl)-4-(1,4,4,4-tetrafluoro-3-(3,4,5-trichlorophenyl)but-1-en-1-yl)-2-(trifluoromethyl)benzohydrazide], the mortality at 50 µg/cm2 in test [1] and in test [2] was 0% throughout.

In the case of `O=C(NNc1ncccc1[N+](=O)[O-])c1ccc(/C(F)=C/C(c2cc(Cl)c(Cl)c(Cl)c2)C(F)(F)F)cc1C(F)(F)F` (stereo not drawn) [F132, (Z)—N′-(3-Nitropyridin-2-yl)-4-(1,4,4,4-tetrafluoro-3-(3,4,5-trichlorophenyl)but-1-en-1-yl)-2-(trifluoromethyl)benzohydrazide], the mortality at 50 µg/cm2 in test [1] and in test [2] was 50 to 100% throughout.

With `O=C(NNC1CCS(=O)(=O)C1)c1ccc(/C(F)=C/C(c2cc(Cl)c(Cl)c(Cl)c2)C(F)(F)F)cc1C(F)(F)F` (stereo not drawn) [F135, (Z)—N′-(1,1-Dioxidotetrahydrothiophen-3-yl)-4-(1,4,4,4-tetrafluoro-3-(3,4,5-trichlorophenyl)but-1-en-1-yl)-2-(trifluoromethyl)benzohydrazide], the mortality at 50 µg/cm2 in test [1] and in test [2] was 50 to 100% in each case.

Turning to `O=C(NNc1ccc(Cl)nc1)c1ccc(/C(F)=C/C(c2cc(Cl)c(Cl)c(Cl)c2)C(F)(F)F)cc1C(F)(F)F` (stereo not drawn) [F136, (Z)—N′-(6-Chloropyridin-3-yl)-4-(1,4,4,4-tetrafluoro-3-(3,4,5-trichlorophenyl)but-1-en-1-yl)-2-(trifluoromethyl)benzohydrazide], the mortality at 50 µg/cm2 in test [1] and in test [2] was 50 to 100% in each case.

These data come from patent US10638756B2, “Molecules having pesticidal utility, and intermediates, compositions, and processes, related thereto” (Dow AgroSciences LLC, priority 2017, dated 2020).
